Reference: PubChem BioAssay (NCI)
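1) Cells in 96-well plates. 2) Compound, 48 h, 5 concentrations. 3) Linear interpolation between surrounding doses. 4) Unreached endpoint = highest concentration. At the GI50, growth is halved. The concentration for full growth arrest is given as TGI.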

Experiments:
Assay in all cases: DTP human tumour cell line panel, 48 h
[1] = tested on: 786-0 renal
[2] = tested on: A498 renal
[3] = tested on: A549 NSCLC
[4] = tested on: ACHN renal
[5] = tested on: BT-549 breast
[6] = tested on: CAKI-1 renal
[7] = tested on: CCRF-CEM leukemia
[8] = tested on: COLO 205 colon
[9] = tested on: DU-145 prostate
[10] = tested on: EKVX NSCLC
[11] = tested on: HCC-2998 colon
[12] = tested on: HCT-116 colon
[13] = tested on: HCT-15 colon
[14] = tested on: HL-60(TB) leukemia
[15] = tested on: HOP-62 NSCLC
[16] = tested on: HOP-92 NSCLC
[17] = tested on: HT29 colon
[18] = tested on: IGROV1 ovarian
[19] = tested on: K-562 leukemia
[20] = tested on: KM12 colon
[21] = tested on: LOX IMVI melanoma
[22] = tested on: M14 melanoma
[23] = tested on: MALME-3M melanoma
[24] = tested on: MCF7 breast
[25] = tested on: MDA-MB-231 breast
[26] = tested on: MDA-MB-435
[27] = tested on: MDA-MB-468 breast
[28] = tested on: MOLT-4 leukemia
[29] = tested on: NCI-H226 lung
[30] = tested on: NCI-H23 lung
[31] = tested on: NCI-H460 lung
[32] = tested on: NCI-H522 lung
[33] = tested on: OVCAR-3 ovarian
[34] = tested on: OVCAR-4 ovarian
[35] = tested on: OVCAR-5 ovarian
[36] = tested on: OVCAR-8 ovarian
[37] = tested on: PC-3 prostate
[38] = tested on: RXF 393 renal
[39] = tested on: SF-268 CNS
[40] = tested on: SF-295 CNS
[41] = tested on: SF-539 CNS
[42] = tested on: SK-MEL-2 melanoma
[43] = tested on: SK-MEL-28 melanoma
[44] = tested on: SK-MEL-5 melanoma
[45] = tested on: SK-OV-3 ovarian
[46] = tested on: SN12C renal
[47] = tested on: SNB-19 CNS
[48] = tested on: SNB-75 CNS
[49] = tested on: SR leukemia
[50] = tested on: SW-620 colon
[51] = tested on: T-47D breast
[52] = tested on: TK-10 renal
[53] = tested on: U251 CNS
[54] = tested on: UACC-257 melanoma
[55] = tested on: UACC-62 melanoma
[56] = tested on: UO-31 renal

C=C1CC[C@@H]2[C@]3(C)COC(c4cn[nH]c4-c4ccc(OC)cc4)O[C@@H]3CC[C@@]2(C)[C@@H]1C/C=C1/C(=O)OCC1O (some centres not stated)
GI50 [1]: 1.92 µM | TGI [1]: 3.6 µM | GI50 [2]: 17 µM | TGI [2]: 50.5 µM | GI50 [3]: 3.32 µM | TGI [3]: 19.5 µM | GI50 [4]: 3.52 µM | TGI [4]: 14.1 µM | GI50 [5]: 2.36 µM | TGI [5]: 7.22 µM | GI50 [6]: 2.96 µM | TGI [6]: 12.1 µM | GI50 [7]: 2.08 µM | TGI [7]: 6.9 µM | GI50 [8]: 1.95 µM | TGI [8]: 3.73 µM | GI50 [9]: 3.23 µM | TGI [9]: 12.1 µM | GI50 [10]: 2.66 µM | TGI [10]: 10.5 µM | GI50 [11]: 2.87 µM | TGI [11]: 8.28 µM | GI50 [12]: 1.86 µM | TGI [12]: 3.57 µM | GI50 [13]: 2.54 µM | TGI [13]: 8.37 µM | GI50 [14]: 2.69 µM | TGI [14]: 14.7 µM | GI50 [15]: 3.44 µM | TGI [15]: 14.2 µM | GI50 [16]: 2.02 µM | TGI [16]: 5 µM | GI50 [17]: 2.86 µM | TGI [17]: 7.91 µM | GI50 [18]: 3.98 µM | TGI [18]: 20 µM | GI50 [19]: 2.71 µM | TGI [19]: > 100 µM | GI50 [20]: 2.38 µM | TGI [20]: 5.43 µM | GI50 [21]: 1.73 µM | TGI [21]: 3.42 µM | GI50 [22]: 3.14 µM | TGI [22]: 13.2 µM | GI50 [23]: 1.74 µM | TGI [23]: 3.64 µM | GI50 [24]: 2.48 µM | TGI [24]: 11.8 µM | GI50 [25]: 2.39 µM | TGI [25]: 5.48 µM | GI50 [26]: 2.24 µM | TGI [26]: 6.42 µM | GI50 [27]: 2.17 µM | TGI [27]: 5.6 µM | GI50 [28]: 2.21 µM | TGI [28]: > 100 µM | GI50 [29]: 3.58 µM | TGI [29]: 18.4 µM | GI50 [30]: 2.51 µM | TGI [30]: 7.69 µM | GI50 [31]: 1.91 µM | TGI [31]: 3.9 µM | GI50 [32]: 2.49 µM | TGI [32]: 7.81 µM | GI50 [33]: 2.27 µM | TGI [33]: 5.87 µM | GI50 [34]: 2.96 µM | TGI [34]: > 100 µM | GI50 [35]: 3.9 µM | TGI [35]: 13.4 µM | GI50 [36]: 3.34 µM | TGI [36]: > 100 µM | GI50 [37]: 2.98 µM | TGI [37]: > 100 µM | GI50 [38]: 1.74 µM | TGI [38]: 3.4 µM | GI50 [39]: 3.25 µM | TGI [39]: > 100 µM | GI50 [40]: 2.13 µM | TGI [40]: 4.77 µM | GI50 [41]: 2.03 µM | TGI [41]: 4.36 µM | GI50 [42]: 3.97 µM | TGI [42]: 17.8 µM | GI50 [43]: 2.54 µM | TGI [43]: 5.91 µM | GI50 [44]: 1.52 µM | TGI [44]: 2.95 µM | GI50 [45]: 10.5 µM | TGI [45]: 67.4 µM | GI50 [46]: 3.54 µM | TGI [46]: 16.5 µM | GI50 [47]: 4.42 µM | TGI [47]: 19.4 µM | GI50 [48]: 1.75 µM | TGI [48]: 5.86 µM | GI50 [49]: 2.87 µM | TGI [49]: > 100 µM | GI50 [50]: 2.29 µM | TGI [50]: 5.56 µM | GI50 [51]: 3.25 µM | TGI [51]: > 100 µM | GI50 [52]: 4.12 µM | TGI [52]: 16.7 µM | GI50 [53]: 2.77 µM | TGI [53]: 10.7 µM | GI50 [54]: 2.46 µM | TGI [54]: 8.92 µM | GI50 [55]: 1.68 µM | TGI [55]: 4.06 µM | GI50 [56]: 1.7 µM | TGI [56]: 3.91 µM
